Literature values in patent publication US10827752B2, “Disinfectant composition” (priority 2010, dated 2020).
“Also recorded” adds a separate entry of the source.

System: spores
Conditions: approximately 2500 ppm of peracetic acid

CC(=O)OO [peracetic acid]
sporicidal action: excellent sporicidal action; also recorded: excellent sporicidal results
